The source of these data is article PMC6248884 (European journal of medicinal chemistry, 2018).

Holding throughout (experiment): Cell proliferation assay
Holding throughout (format): cell-based

In one test the test system is MDA-MB-468 cells (Her2-). Conditions: read-out: MDA-MB-468 IC50; Table 5; Her2- cell.
A further test relates to SKBR3 cells (Her2+). Conditions: read-out: SKBR3 IC50; Table 5; Her2+ cell.
The next test concerns MDA-MB-231 cells (Her2-). Conditions: read-out: MDA-MB-231 IC50, Table 5.

Each structure is given as a SMILES string. Square brackets hold non-standard residues; d marks the D form. Peptide text beside a SMILES is read from it. * marks the point of attachment. Dolaproine = CO[C@@H]([C@@H]1CCCN1)[C@@H](C)C(=O)O; Dil = CC[C@H](C)[C@H](NC)[C@@H](CC(=O)O)OC; X1 = C[C@@H](N*)[C@@H](O)c1ccccc1; NMeV = CN[C@H](C(=O)O)C(C)C

Regarding `CC[C@H](C)[C@@H]([C@@H](CC(=O)N1CCC[C@H]1[C@H](OC)[C@@H](C)C(=O)N[C@H](C)[C@@H](O)c1ccccc1)OC)N(C)C(=O)[C@@H](NC(=O)[C@@H](NC)C(C)C)C(C)C` [MMAE, monomethyl auristatin E, reference compound] (H-[NMeV]V[Dil][Dolaproine]-X1), the concentration for half-maximal inhibition (IC50) in the test with MDA-MB-468 cells (Her2-) amounted to 0.17 nM; with SKBR3 cells (Her2+), 0.072 nM; with MDA-MB-231 cells (Her2-) it was 0.005 nM.
